Source: patent US9993494B2, “Compositions and methods for treating fibrotic disease” (eFFECTOR Therapeutics, Inc., priority 2014, dated 2018)

Tested on: normal human lung fibroblasts
Test: Ribosomal profiling: translational efficiency in TGFβ-treated fibroblasts
Assay type: cell-based
Details: TGFβ-treated fibroblasts
Experimental: Ribosomal profiling allows for measurement of changes in transcription and translation on a genome-wide basis accompanying TGFβ-dependent transformation of fibroblasts to myofibroblasts. Ribosomal profiles of the TGFβ-treated fibroblasts from Example 1 (about 6×10^6 cells/10 cm plate) were prepared and analyzed for changes in translational efficiencies with respect to potential disease-associated cellular changes accompanying this TGFβ-induced transformation.
Briefly, cells were washed with cold PBS supplemented with cycloheximide and lysed with 1× mammalian cell lysis buffer for 10 minutes on ice. Lysates were clarified by centrifugation for 10 minutes at 14,000 rpm and supernatants were collected. Cell lysates were processed to generate ribosomal protected fragments and total mRNA according to the instructions included with the ARTseq Ribosome Profiling Kit (Illumina, San Diego, Calif.). Sequencing of total RNA (RNA) and of ribosome-protected fragments of RNA (RPF) was carried out using RNA-Seq methodology according to the manufacturer's instructions (Illumina). To analyze the ribosomal profiles, RNA-Seq reads were processed with tools from the FASTX-Toolkit (fastq_quality_trimmer, fastx_clipper and fastx_trimmer). Unprocessed and processed reads were evaluated for a variety of quality measures using FastQC, and processed reads were mapped to the human genome using TopHat (see, e.g., Trapnell et al., Bioinformatics 25:1105, 2009). Gene-by-gene assessment of the number of fragments strictly and uniquely mapping to the coding region of each gene was conducted using HTSeq-count, a component of the HTSeq package. […] Genes with low counts in either RPF or RNA were excluded from differential analyses. Pathway and network analyses of differential data were conducted using Ingenuity Pathway Analysis (IPA).

SMILES: CC(C=CC(=O)NO)=CC(C)C(=O)c1ccc(N(C)C)cc1 (stereo not drawn) [TSA, 7-[4-(dimethylamino)phenyl]-N-hydroxy-4,6-dimethyl-7-oxohepta-2,4-dienamide]
- renormalizing the translational profile of DNASE1L1 (ENSG00000013563): − (− = <0.9)
- renormalizing the translational profile of KITLG (ENSG00000049130): + (+ = 0.9 to 1.5)
- renormalizing the translational profile of ADAMTS6 (ENSG00000049192): − (− = <0.9)
- renormalizing the translational profile of LETMD1 (ENSG00000050426): − (− = <0.9)
- renormalizing the translational profile of PLEKHA5 (ENSG00000052126): − (− = <0.9)
- renormalizing the translational profile of EIF4B (ENSG00000063046): + (+ = 0.9 to 1.5)
- renormalizing the translational profile of RPL18 (ENSG00000063177): − (− = <0.9)
- renormalizing the translational profile of HIPK2 (ENSG00000064393): − (− = <0.9)
- renormalizing the translational profile of ASPM (ENSG00000066279): + (+ = 0.9 to 1.5)
- renormalizing the translational profile of RASSF1 (ENSG00000068028): − (− = <0.9)
- renormalizing the translational profile of PABPC1 (ENSG00000070756): − (− = <0.9)
- renormalizing the translational profile of RPL31 (ENSG00000071082): − (− = <0.9)
- renormalizing the translational profile of PLD1 (ENSG00000075651): − (− = <0.9)
- renormalizing the translational profile of EDN1 (ENSG00000078401): − (− = <0.9)
- renormalizing the translational profile of AURKA (ENSG00000087586): ++ (++ = 1.5 to 2.0)
- renormalizing the translational profile of EPB41L1 (ENSG00000088367): + (+ = 0.9 to 1.5)
- renormalizing the translational profile of RPL6 (ENSG00000089009): − (− = <0.9)
- renormalizing the translational profile of P2RX7 (ENSG00000089041): ++ (++ = 1.5 to 2.0)
- renormalizing the translational profile of KDM2B (ENSG00000089094): − (− = <0.9)
- renormalizing the translational profile of RPLP0 (ENSG00000089157): − (− = <0.9)
- renormalizing the translational profile of IGBP1 (ENSG00000089289): − (− = <0.9)
- renormalizing the translational profile of IRAK3 (ENSG00000090376): + (+ = 0.9 to 1.5)
- renormalizing the translational profile of PABPC4 (ENSG00000090621): − (− = <0.9)
- renormalizing the translational profile of FMO2 (ENSG00000094963): + (+ = 0.9 to 1.5)
- renormalizing the translational profile of ACOT7 (ENSG00000097021): − (− = <0.9)
- renormalizing the translational profile of ATP5D (ENSG00000099624): − (− = <0.9)
- renormalizing the translational profile of LGALS1 (ENSG00000100097): − (− = <0.9)
- renormalizing the translational profile of EIF3L (ENSG00000100129): − (− = <0.9)
- renormalizing the translational profile of RPL3 (ENSG00000100316): − (− = <0.9)
- renormalizing the translational profile of CEP192 (ENSG00000101639): − (− = <0.9)
- renormalizing the translational profile of AMMECR1 (ENSG00000101935): − (− = <0.9)
- renormalizing the translational profile of PLP2 (ENSG00000102007): − (− = <0.9)
- renormalizing the translational profile of EIF3E (ENSG00000104408): − (− = <0.9)
- renormalizing the translational profile of EEF1D (ENSG00000104529): − (− = <0.9)
- renormalizing the translational profile of C19orf53 (ENSG00000104979): − (− = <0.9)
- renormalizing the translational profile of GLTSCR2 (ENSG00000105373): + (+ = 0.9 to 1.5)
- renormalizing the translational profile of RAB3D (ENSG00000105514): ++ (++ = 1.5 to 2.0)
- renormalizing the translational profile of RPL18A (ENSG00000105640): − (− = <0.9)
- renormalizing the translational profile of COMP (ENSG00000105664): − (− = <0.9)
- renormalizing the translational profile of GLCCI1 (ENSG00000106415): + (+ = 0.9 to 1.5)
- renormalizing the translational profile of CORO2A (ENSG00000106789): − (− = <0.9)
- renormalizing the translational profile of GDF10 (ENSG00000107623): + (+ = 0.9 to 1.5)
- renormalizing the translational profile of RPL28 (ENSG00000108107): − (− = <0.9)
- renormalizing the translational profile of RPL19 (ENSG00000108298): − (− = <0.9)
- renormalizing the translational profile of RASD1 (ENSG00000108551): − (− = <0.9)
- renormalizing the translational profile of NAT9 (ENSG00000109065): − (− = <0.9)
- renormalizing the translational profile of RPL34 (ENSG00000109475): − (− = <0.9)
- renormalizing the translational profile of CRYAB (ENSG00000109846): − (− = <0.9)
- renormalizing the translational profile of GAPDH (ENSG00000111640): − (− = <0.9)
- renormalizing the translational profile of C12orf57 (ENSG00000111678): + (+ = 0.9 to 1.5)
- renormalizing the translational profile of MDFI (ENSG00000112559): − (− = <0.9)
- renormalizing the translational profile of HBEGF (ENSG00000113070): − (− = <0.9)
- renormalizing the translational profile of RPL24 (ENSG00000114391): − (− = <0.9)
- renormalizing the translational profile of EEF1B2 (ENSG00000114942): − (− = <0.9)
- renormalizing the translational profile of IFIH1 (ENSG00000115267): − (− = <0.9)
- renormalizing the translational profile of DPH5 (ENSG00000117543): − (− = <0.9)
- renormalizing the translational profile of PPL (ENSG00000118898): − (− = <0.9)
- renormalizing the translational profile of PLEKHG1 (ENSG00000120278): − (− = <0.9)
- renormalizing the translational profile of LIAS (ENSG00000121897): − (− = <0.9)
- renormalizing the translational profile of GPSM2 (ENSG00000121957): ++ (++ = 1.5 to 2.0)
- renormalizing the translational profile of RPL21 (ENSG00000122026): − (− = <0.9)
- renormalizing the translational profile of RPL5 (ENSG00000122406): − (− = <0.9)
- renormalizing the translational profile of INHBA (ENSG00000122641): − (− = <0.9)
- renormalizing the translational profile of CIT (ENSG00000122966): +++ (+++ = >2.0)
- renormalizing the translational profile of RPL23 (ENSG00000125691): − (− = <0.9)
- renormalizing the translational profile of LAMP5 (ENSG00000125869): − (− = <0.9)
